Earlier results on two compounds are cited in US20110274751A1 (Sanovel Ilac Sanayi Ve Ticaret Anonim Sirketi, priority 2010, published 2011).

Counter-ions that a name gives are not always drawn.

For series [1] the following is noted: in vivo.

In the case of `COc1ccc(CN2CCNCC2)c(OC)c1OC` [Trimetazidine dihydrochloride], the solubility in water result (water) is “highly-soluble”.

The half-life is the time in which the quantity being followed falls by half. As for `COc1ccc(CN2CCNCC2)c(OC)c1OC` [Trimetazidine, 1-(2,3,4-trimethoxybenzyl)piperazine], the solubility entry is recorded as “considerably high solubility”. Also, the half-life in series [1] was 6 h.
